# Residues, ends and D or L forms follow the SMILES beside them. *: point of attachment. Cbz = O=C(OCc1ccccc1)*
# How the values were obtained:
# Format in all cases: cell-based, human
# wild-type TetR-EGFP = biological target: T1, wild-type TetR-EGFP (Escherichia coli, UniProt P04483); experiment: Flow cytometer fluorescence of HEp-2 cells expressing wild-type TetR-EGFP; conditions: 100 μg/ml MG132, 12 hours
# T1 construct: prepare a DNA fragment encoding TetR with no termination codon; expressed in transfected cells; host or cells: human cell line HEp-2, vector pEB6CAG
# T1 sequence (P04483 whole entry, the tested form may be a part): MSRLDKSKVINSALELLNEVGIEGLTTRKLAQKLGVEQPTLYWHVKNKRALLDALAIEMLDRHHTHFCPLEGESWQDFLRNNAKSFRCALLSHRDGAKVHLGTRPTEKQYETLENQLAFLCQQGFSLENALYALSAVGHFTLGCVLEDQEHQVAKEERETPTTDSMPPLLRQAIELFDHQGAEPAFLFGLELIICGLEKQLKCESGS
# Description: (§1) All of or any two mutations in combination from three types of mutations, which substitute aspartic acid at the 95th position with asparagine, leucine at the 101st position with serine and glycine at the 102nd position with aspartic acid, were introduced into the tetracycline repressor (TetR), which is an Escherichia coli protein that binds to the antibiotic tetracycline (Tet). The procedure was as follows:
# Next, cDNAs encoding TetR-EGFP in which wild-type TetR gene and mutation-introduced TetR gene, respectively, are fused with green fluorescent protein (EGFP) were created. The procedure was as follows.
# (§2) An oligo-DNA was synthesized, having a base sequence in which the termination codon has been substituted so as to encode another amino acid instead of the termination codon in the TetR gene, and downstream thereof, a sequence that is recognized and cut by a restriction enzyme; this was used to carry out a PCR reaction to prepare a DNA fragment encoding TetR with no termination codon, and this was substituted with the corresponding site on the DNA encoding the wild-type gene. Then, the DNA was cut by a restriction enzyme and ligated with the upstream side of a DNA fragment encoding EGFP in such a way that the translation open reading frames for protein synthesis match (FIG. 1A). […]
# pEB6CAG-TetRhCre = experiment: Cre recombination reporter in HEp-2, control by protein degradation alone; conditions: 1.0 μg/ml doxycycline
# Description: (§3) As vectors to control the expression of the lambda phage Cre protein, three types of vectors were constructed for: control by protein degradation only, control by transcription only and dual control. […] The expression effect of Cre can be detected simply from this change in fluorescence wavelength (FIG. 10).
# pOSTet15-TetRhCre = experiment: Cre recombination reporter (Venus to DsRed1) in HEp-2, dual control; set-up: cells displaying red fluorescence only: dose or concentration left out as unconfirmed
# Description: As vectors to control the expression of the […] Cre protein, three types of vectors were constructed for: control by protein degradation only, control by transcription only and dual control. […] Three types of vectors were constructed, “pEB6CAG-TetRhCre”, which enables control by degradation alone, and created by turning the hCre cDNA into TetRhCre which enables degradation control by doxycycline, and which was then integrated into the constitutive gene expression vector “pEB6CAG” described above; “pOSTet15-hCre”, which enables control by transcription alone and was created by integrating hCre cDNA into “pOSTet15”: “pOSTet15-TetRhCre”, which enables dual control and created by integrating TetRhCre into “pOSTet15”. In addition to these, as a monitoring vector for confirming the DNA recombination effect by the Cre protein, a recombination reporter vector in which the yellow fluorescent protein Venus was flanked by loxP sequences and the red fluorescent protein DsRed1 was placed downstream thereof, “pEB6CAG-Venus-lox-R1-SRZ” (FIG. 10), was also constructed. […] The expression effect of Cre can be detected simply from this change in fluorescence wavelength (FIG. 10).
# Using a commercially available lipofection reagent, this DNA was introduced into the human cell line HEp-2, the cell line was cultured for four days in the presence of 1.5 mg/ml G418 and 0.1 mg/ml zeocin, and only cells with the two species of DNA introduced were selected. Fluorescences at two wavelengths, yellow and red, were measured with a flow cytometer.
# Next, comparison on the capabilities was performed, between when Cre protein expression regulation is carried out by protein degradation control alone and transcription control alone, and the dual control system of the present invention. […]
# Next, analyses were performed on the influence of the concentration of doxycycline exerted on recombination efficiency. Two species, the vector for Cre dual control and the recombination reporter vector described above, were introduced into a cell, and after selection over […] efficiency.
# mutant TetR-EGFP = experiment: Flow cytometer fluorescence of HEp-2 cells expressing mutant TetR-EGFP; conditions: various concentrations
# Description: as §1
# An oligonucleotide encoding an amino acid sequence containing the amino acid substitution to be introduced was synthesized, and this was used to prepare a DNA fragment containing a mutation by PCR reaction. […]
# as §2
# pOSTet15-hCre = experiment: Cre recombination reporter in HEp-2, control by transcription alone; conditions: 1.0 μg/ml doxycycline
# Description: as §3
# [1] = tested on: pOSTet15-eTetREGFP and pOSTet15-hTetREGFP; experiment: EGFP expression induction in HEp-2, dual control of transcription and degradation
# Description: A cDNA was integrated into the constitutive gene expression vector “pEB6CAG” or the vector “pOSTet15” enabling transcription-regulated expression through doxycycline, which the present inventors developed by applying the methods in Japanese National-phase PCT Laid-Open Patent Publication No. 2003-515314 (the entirety of which is incorporated herein by reference). The cDNA to be expressed integrates a simple fluorescent protein EGFP, or eTetREGFP or hTetREGFP, which degradation control is enabled by doxycycline. […]
# Using a commercially available lipofection reagent, this DNA was introduced into the human cell line HEp-2, the cell line was cultured for four days in the presence of 1.5 mg/ml G418, and only cells with the DNA introduced were selected. These cells were subjected to a flow cytometer and the intensity of fluorescence by EGFP was measured cell by cell to determine the average fluorescence intensity thereof.
smiles,measurement,setting,value
CC(C)C[C@@H](C=O)NC(=O)[C@H](CC(C)C)NC(=O)[C@H](CC(C)C)NC(=O)OCc1ccccc1 [MG132] (Cbz-Leu-Leu-Leu-aldehyde),change in intensity of fluorescence,wild-type TetR-EGFP,no major change
C[C@H]1c2cccc(O)c2C(=O)C2=C(O)[C@]3(O)C(=O)C(C(N)=O)=C(O)[C@@H](N(C)C)[C@@H]3[C@@H](O)[C@@H]21 [doxycycline],cytotoxicity when doxycycline was added,pEB6CAG-TetRhCre,killing cells
same,cells displaying red fluorescence only,pOSTet15-TetRhCre,60%
same,decrease in cell count due to cytotoxicity,"pOSTet15-TetRhCre; 1.0 μg/ml doxycycline, treated for three days",almost no decrease in cell count
same,cells changed to red fluorescence,"pOSTet15-TetRhCre; 1.0 μg/ml doxycycline, treatment of only one day",≥ 70%
same,cells in which red fluorescence was detected (red only plus both yellow and red),pOSTet15-TetRhCre; 1 mg/ml doxycycline,≥ 70%
same,concentration needed to ensure that recombination occurs,pOSTet15-TetRhCre; four concentration steps from 0.001 μg/ml to 1.0 μg/ml,1.0 µg/mL
same,concentration at which enhancement of fluorescence started to be observed,mutant TetR-EGFP,≥ 0.05 µg/mL
same,concentration at which the maximum intensity of fluorescence was reached,mutant TetR-EGFP,1.5 µg/mL
same,cytotoxicity when doxycycline was added,pOSTet15-hCre,cytotoxicity was observed
same,"induction ratio of fluorescence, doxycycline added vs not added",[1],≥ 400 times

# From US8232099B2, “Method for transcription/degradation dual control of protein by antibiotic” (Japan Science and Technology Agency, priority 2007, dated 2012)
